Publication PMC9870890 (Nature Communications, 2023)
Several values for one entry are separate records, joined by “and”; a condition that tells them apart may be missing. Equal entries are not always repeated.

Biological target: T1, M2RFL△9M_K383M (Homo sapiens, UniProt P08172, K383M/M139L/M142L/M143L/M1T/M248L/M296L/M368L/M456T/M45L)
T1 construct: we used the full-length M2R (M2RFL) with mutations at the three native methionines in ICL3; FLAG; His; made in house; host or cells: Sf9 membranes
T1 sequence (P08172 1-466 M1T/M45L/M139L/M142L/M143L/M248L/M296L/M368L/K383M/M456T): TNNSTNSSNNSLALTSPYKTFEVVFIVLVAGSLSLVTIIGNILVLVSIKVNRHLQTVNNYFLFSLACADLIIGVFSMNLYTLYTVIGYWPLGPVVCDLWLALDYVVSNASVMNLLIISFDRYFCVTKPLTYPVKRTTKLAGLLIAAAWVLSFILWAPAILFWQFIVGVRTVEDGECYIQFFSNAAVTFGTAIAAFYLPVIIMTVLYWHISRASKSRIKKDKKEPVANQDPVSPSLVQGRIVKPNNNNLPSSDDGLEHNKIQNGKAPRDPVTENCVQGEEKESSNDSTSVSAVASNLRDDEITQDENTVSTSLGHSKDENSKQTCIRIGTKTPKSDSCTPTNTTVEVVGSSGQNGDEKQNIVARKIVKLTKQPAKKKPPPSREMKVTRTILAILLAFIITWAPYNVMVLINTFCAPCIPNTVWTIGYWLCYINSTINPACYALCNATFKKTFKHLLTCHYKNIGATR
Assay: [3H]-NMS competition binding (ACh competition, GoA titration), engineered construct
Set-up: unit not given here
Experimental: Purified M2R receptor was reconstituted into high-density lipoprotein (HDL) particles constituting apolipoprotein A1(APOA1) and mixture of POPG: POPC lipids with 3:2 (mol:mol)ratio as previously described. […] Membranes or HDL particles were separated from excess [^3H]-NMS by Whatman GF/B filters using a Brandel 48-well harvester. The bound radioligand were read on a liquid scintillation counter (MicroBeta Jet, PerkinElmer). Data were analyzed by GraphPad Prism 9.2.0. […]
Data are given as mean
± SEM from 3 independent experiments.
M2RFL△9M_K383M and M2RFL_WT.
SEM from 3 independent experiments. […]

CC(=O)OCC[N+](C)(C)C [ACh, acetylcholine]
ACh competition curve data, Supplementary Fig. 4c (log[M] (ACh) -3): 3.636 and 3.347 and 4.163
ACh competition curve data, Supplementary Fig. 4c (log[M] (ACh) -4): 19.7375 and 21.0617 and 22.4385
ACh competition curve data, Supplementary Fig. 4c (log[M] (ACh) -5): 66.4796 and 63.8048 and 73.8724
ACh competition curve data, Supplementary Fig. 4c (log[M] (ACh) -6): 76.3279 and 99.6814 and 101.207
ACh competition curve data, Supplementary Fig. 4c (log[M] (ACh) -7): 102.154 and 99.3043 and 98.5413
ACh competition curve data, Supplementary Fig. 4c (log[M] (ACh) -8): 82.4578 and 100.655 and 103.084
